This note sets out measurements from publication PMC12621019, “Restructuring Antiviral Quinazolinone Frameworks to Derive and Optimize Inhibitors of Chikungunya Virus” (ACS Medicinal Chemistry Letters, 2025).

Converted amounts (≈) assume the structure as drawn.

The nature of series [1]: Cytotoxicity assay (CellTiter Glo) in NHDF cells. The settings on record: human, CC50, NHDF cells, maximum 40 μM. For orientation: ATP-based viability assays read luminescence as a measure of living cells.
The next series has as its system NHDF cells. Description: Cytotoxicity assay (CellTiter Glo) in NHDF cells. The settings on record: NHDF cells, 72 h, maximum 40 μM.
In series [2] the test system is CHIKV (strain 181/25mKate). The series can be described thus: microbe, parasite or virus in culture. The settings on record: Chikungunya virus, NHDF; for log reduction at 10 µM: 72 h, read-out: titer redn, log. The series is classed as cell-based.
The nature of series [3]: Liver microsomal stability. The conditions noted are these: CD-1, mouse, microsomes. Background: Liver microsomes are vesicles of endoplasmic reticulum, rich in cytochrome P450 enzymes.
Series [4] is described as follows: Plasma protein binding (equilibrium dialysis). The settings on record: male, CD-1, mouse.
The next series can be described thus: physchem. The settings on record: pH 7.4.
The nature of another series: Mouse plasma stability. The settings on record: male, CD-1, mouse.
Series [5] can be described thus: Kinetic solubility determination. The settings on record: for solubility kinetic at 24 h: pH 7.4, aqueous buffer, kinetic from dmso stock.
A short description of series [6]: Cytotoxicity in Vero E6 cells (live cell count, high-content imaging). The settings on record: African green monkey.

Regarding `COc1c(F)cc(-n2c(C3CCCCN3)nc3cc(N4CCN(C(C)C)CC4)c(Cl)cc3c2=O)cc1F` (racemic) [rac-1h], in series [1], the CC50 (usually the concentration giving 50% cytotoxicity) at 72 h was above 40 µM. For the same compound, the CC50 entry with NHDF cells (listed as racemic 1h) is listed as “without observed cytotoxicity”. Besides, the log reduction at 10 µM in series [2] was determined as 1.3.
On to `CC(C)N1CCN(c2cc3nc(C4CCCCN4)n(-c4ccc(Cl)cc4)c(=O)c3cc2Cl)CC1` (racemic) [rac-1x], for which the half-life (usually the time needed for the level to fall by half in the phase considered) was above 145 min in [3] and above 289 min in the series “Mouse plasma stability”. The fraction unbound (as a rule, free concentration divided by total concentration) at 4 h, 2 μM in series [4] is 0.033. Moreover, in “physchem”, the logD (as a rule, the decadic logarithm of the distribution of all forms, ionised or not, between an organic phase and buffer at a given pH) is 2.3. The compound further had a CC50 at 72 h in series [1] of 20.9 µM. The log reduction at 10 µM in series [2] is around 4. The kinetic solubility (commonly the concentration staying in solution when a stock, usually in DMSO, is diluted into the medium) at 24 h in [5] stood at 34.6 µM (≈ 17.3 µg/mL).
With `COc1c(F)cc(-n2c([C@H]3CCCCN3)nc3cc(N4CCN(C(C)C)CC4)c(Cl)cc3c2=O)cc1F` [(R)-1h], the half-life in [3] was above 145 min; in the series “Mouse plasma stability” it was above 240 min. The same compound had a fraction unbound at 4 h, 2 μM in [4] of 0.232. This compound also returned a CC50 at 20 h in series [6] above 20 µM. This compound also displayed a CC50 at 72 h in [1] of around 19 µM. Besides, the CC50 in the series on NHDF cells worked out at 18.6 µM. Moreover, in [2], the log reduction at 10 µM was determined as 4.1. In series [2] (read-out: EC50 (titer reduction assay, dose response)), the EC50 – broadly, the concentration giving half of the maximal effect – was 860 nM. Moreover, in [5] (PBS buffer, pH 7.4), the “boost in aqueous solubility compared to rac-1x” value was 5 fold. For the same compound, the kinetic solubility at 24 h in series [5] was determined as 183 µM (≈ 97.4 µg/mL).
`COc1c(F)cc(-n2c([C@@H]3CCCCN3C)nc3cc(N4CCN(C(C)C)CC4)c(Cl)cc3c2=O)cc1F` [(S)-1z] returned a CC50 at 72 h in [1] of 36.5 µM. In series [2], the log reduction at 10 µM turned out to be 0.5.
